According to patent publication US20260092054A1, “FUSED RING COMPOUND AND PHARMACEUTICAL CONTAINING SAME” (KAKEN PHARMACEUTICAL CO., LTD., priority 2022, published 2026):

Tested on: human STAT6
Assay: Human STAT6 dependent reporter activity (IL-4 stimulated STAT6 reporter assay using STAT6-HEK293 cells)
Assay type: cell-based
Details: Homo sapiens, compound 0.1 μmol/L; IL-4 stimulation, luciferase activity; read-out: Inhibition rate (%)
Method: Test Example 2: Measurement of Human STAT6 Dependent Reporter Activity
1) Construction of Human STAT6-HEK293 Cells
HEK 293 cells maintenance cultured by [Penicillin-Streptomycin (Thermo Fisher Scientific) and FBS, 1 vol % and 10 vol % respectively added to DMEM high glucose (Thermo Fisher Scientific)](manufactured by ATCC) were collected, and suspended in 10 mL of 0.5% BSA/PBS. 1×10^6 cells were collected, the supernatant was removed by centrifuging, and the cells were suspended in 100 μL of Nucleofector solution V (manufactured by Lonza K.K.). 2 μg of STAT6 vector [plasmid DNAs incorporating human STAT6 sequences in pcDNA3.1 (Invitrogen)] was added, and the STAT6 vector was introduced into the HEK293 cells using the program Q-001 initially registered in the Nucleofector®2b. A cell line (STAT6-HEK293 cells) consistently expressing STAT6 was acquired by selecting resistant cells in a medium containing Geneticin® (manufactured by Thermo Fisher Scientific). 2) STAT6 reporter assay using STAT6-HEK293 cells 3×10^6 STAT6-HEK293 cells maintained in assay medium [culture medium supplemented with 1 vol % Geneticin®] were harvested and seeded in a 10 cm dish. 3 μg of a STAT6 reporter vector [plasmid in which a sequence containing a STAT6 binding sequence and a C/EBP binding sequence in tandem was incorporated into pGL4.27 (manufactured by Promega Corporation)] and 9 μL of FuGENE® HD transfection reagent (manufactured by Promega Corporation) were added to 500 μL of Opti-MEM® (manufactured by Thermo Fisher Scientific) to prepare transfection solutions. The transfection solution was vortexed and left to stand for about 5 minutes, then added dropwise to the STAT6-HEK293 cells, which were then cultured overnight in a C02 incubator to produce STAT6 reporter cells.
The prepared STAT6 reporter cells were seeded on B&W isoplate-96 TC (PerkinElmer Japan Co., Ltd.) (3×10^4 cells/50 μL/well) and cultured overnight in a C02 incubator (37° C., 5% C02). 50 μL of assay medium was added to each well instead of the STAT6 reporter cells. The compound addition solution was prepared by diluting the DMSO solution of the example compound 250-fold using the assay medium. 20 μL of compound addition solution or 0.4 vol % DMSO-containing assay medium was added to the plate, and the plate was then cultured in a CO2 incubator for 1 hour. 10 μL of 80 ng/mL human IL-4 solution (Peprotech) or assay medium was added to each well, and the cells were cultured in a CO2 incubator for 6 hours.
STAT6 reporter activity was measured using the Bright-Glo® Luciferase Assay System (Promega). 100 μL of Bright-Glo® reagent was added to each well, and luciferase activity was measured using Infinite® F500. The inhibition rate of each Example compound was calculated by the following formula using the luciferase activity value (G) when no Example compound was added and stimulation with IL-4 was performed, the luciferase activity value (H) when no Example compound was added and stimulation with IL-4 was not performed, and the luciferase activity value (I) when each Example compound was treated and stimulation with IL-4 was performed.
Note that the viable cell rate under each condition was 70% or more, and it was determined that the luciferase activity inhibitory activity of each example compound was appropriately evaluated.

| SMILES | inhibition at 0.1 µM [%] |
| --- | --- |
| CCn1c(-c2ccc(-c3ncon3)cc2)nc2cc(Br)cc(C(=O)Nc3cccc(C(N)=O)c3)c21 [Ex. 7] | 1 |
| CCn1c(-c2ccc3c(c2)CCOC3C(N)=O)cc2ccnc(C(=O)Nc3ccc(F)c(C(N)=O)c3)c21 (stereo not drawn) [Ex. 28] | 43 |

Same assay, conditions: Homo sapiens, compound 1 μmol/L; IL-4 stimulation, luciferase activity; read-out: Inhibition rate (%)

| SMILES | inhibition at 1 µM [%] |
| --- | --- |
| CCn1c(-c2ccc(-c3ncon3)cc2)nc2cc(Br)cc(C(=O)Nc3cccc(C(N)=O)c3)c21 [Ex. 7] | 56 |
| CCn1c(-c2ccc3c(c2)CCOC3C(N)=O)cc2ccnc(C(=O)Nc3ccc(F)c(C(N)=O)c3)c21 (stereo not drawn) [Ex. 28] | 93 |

Molecular target: T1, human STAT6/pIL-4Rα (Homo sapiens, UniProt P42226)
T1 construct: histidine tag
T1 sequence (P42226 123-658): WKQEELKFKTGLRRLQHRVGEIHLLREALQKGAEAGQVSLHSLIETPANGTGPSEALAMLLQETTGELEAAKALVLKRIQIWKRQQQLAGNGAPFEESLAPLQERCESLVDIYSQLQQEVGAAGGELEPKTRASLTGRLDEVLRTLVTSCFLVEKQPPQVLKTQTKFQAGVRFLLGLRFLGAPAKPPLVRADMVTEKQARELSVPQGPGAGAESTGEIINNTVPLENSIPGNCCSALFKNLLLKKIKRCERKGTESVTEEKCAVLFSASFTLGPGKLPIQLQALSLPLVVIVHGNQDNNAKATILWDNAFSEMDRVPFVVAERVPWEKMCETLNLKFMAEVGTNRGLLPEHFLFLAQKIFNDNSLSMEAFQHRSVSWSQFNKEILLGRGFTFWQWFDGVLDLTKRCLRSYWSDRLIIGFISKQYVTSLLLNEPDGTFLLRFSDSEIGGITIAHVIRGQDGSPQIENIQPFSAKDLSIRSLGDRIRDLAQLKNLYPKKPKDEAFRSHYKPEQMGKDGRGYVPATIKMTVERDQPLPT
Assay: Binding inhibitory activity between human STAT6/pIL-4Rα by fluorescence polarization method
Details: rhSTAT6 (123-658) / FAM-pIL-4Rα peptide
Method: Test Example 1: Measurement of Binding Inhibitory Activity Between Human STAT6/pIL-p 4Rα by Fluorescence Polarization Method
1) Construction of Histidine Tag-Fused Recombinant Human STAT6 (123 to 658 Region)
A histidine tag-fused recombinant human STAT6 (hereinafter referred to as rhSTAT6) expression vector [plasmid DNA in which a nucleic acid sequence containing human STAT6 (123-658 region) was inserted into a pET28a(+) vector (Novagen)] was inserted into E. coli, and the cells were cultured overnight under culturing conditions at 17° C. with IPTG treatment. After disrupting E. coli with a high-pressure homogenizer (EmulsiFlex-C3, manufactured by AVESTIN, Inc.), affinity purification using Ni-NTA agarose (manufactured by Qiagen), cation exchange chromatography using HiTrap® CM-FF (manufactured by GE healthcare), and gel filtration chromatography using Superdex® 200 10/300GL (manufactured by GE healthcare) were performed to obtain rhSTAT6.
2) Measurement of Binding Inhibitory Activity Between Human STAT6/pIL-4Rα by Fluorescence Polarization Method
A DMSO solution of the example compound was diluted with an assay buffer [for example, a buffer containing 50 mmol/L NaCl, 10 mmol/L HEPES (pH 7.0), 1 mmol/L DTT, 1 mmol/L EDTA, and 0.01 vol % NP-40, and the like] to prepare a compound-added solution. The DMSO concentration in the compound addition solution was adjusted to 1 or 2 vol %. 10 μL of the compound addition solution and an assay buffer containing 1 or 2 vol % DMSO were added to each well of a 384-well plate. 5 μL of an assay buffer solution containing rhSTAT6 (rhSTAT6 concentration: for example, 1 μmol/L) or an assay buffer was added to each well of a 384-well plate. After leaving the plate at room temperature for 30 minutes in the dark, 5 μL of an assay buffer solution (FAM-pIL-4Rp concentration: for example, 80 nmol/L) containing FAM-labeled phosphorylated IL-4Rα peptide (sequence: FAM-Ala-pTyr-Lys-Pro-Phe-Gln-Asp-Leu-IIe-NH2) (hereinafter, FAM-pIL-4Rp) or an assay buffer containing 2 vol % DMSO was added to each well of the 384-well plate. The mixture was left to stand at room temperature for 30 minutes in the dark, and then centrifuged (200 g, 1 minute, room temperature). Fluorescence polarization values were measured using Infinite (registered trademark) F500 (manufactured by Tecan Japan Co., Ltd.) (Excitation: 485 nm, Emission: 535 nm). The inhibition rate of each Example compound was calculated according to the following formula using the fluorescence polarization value (A) when rhSTAT6 and FAM-pIL-4Rp were added without adding the Example compound, the fluorescence polarization value (B) when FAM-pIL-4Rp was added without adding the Example compound and rhSTAT6, and the fluorescence polarization value (C) when each Example compound, rhSTAT6, and FAM-pIL-4Rp were added.
In the evaluation of each example compound, the 50% inhibitory concentration (IC50) of each example compound was calculated from a linear function equation of a straight line connecting two points sandwiching 50%.

| SMILES | IC50 [µM] |
| --- | --- |
| CCn1c(-c2ccc(N3C(=O)C(C)CC3C)cc2)nc2cc(C(F)(F)F)cc(C(=O)Nc3cccc(C(N)=O)c3)c21 (single isomer, unassigned) [Ex. 13] | 9.09 |
| CCn1c(-c2ccc(N3C(=O)C(C)CC3C)cc2)nc2cc(C(F)(F)F)cc(C(=O)Nc3cccc(C(N)=O)c3F)c21 (single isomer, unassigned) [Ex. 220] | 9.6 |
| CC1CC(C)N(c2ccc(-c3cc4ccnc(C(=O)Nc5ccc(F)c(C(N)=O)c5)c4n3CC3(C#N)CC3)cc2)C1=O (single isomer, unassigned) [Ex. 222] | 3.1 |
| CC1CC(C)N(c2ccc(-c3cc4ccnc(C(=O)Nc5cccc(C(N)=O)c5F)c4n3CC3(C#N)CC3)cc2)C1=O (single isomer, unassigned) [Ex. 224] | 1.59 |
| CCn1c(-c2ccc3c(c2)CCN(C(C)=O)C3)nc2cc(C(F)(F)F)cc(C(=O)Nc3cccc(C(N)=O)c3)c21 [Ex. 3] | 2.28 |
| CCn1c(-c2ccc(-n3ccccc3=O)cc2)nc2cc(C(F)(F)F)cc(C(=O)Nc3cccc(C(N)=O)c3C)c21 [Ex. 10] | 3.26 |
| COCCn1c(-c2ccc3c(c2)CCOC3C(=O)O)nc2cc(C(F)(F)F)cc(C(=O)Nc3cccc(C(N)=O)c3)c21 (stereo not drawn) [Ex. 29] | 0.84 |
| COCCn1c(-c2ccc3c(c2)CCOC3C(N)=O)nc2cc(C(F)(F)F)cc(C(=O)Nc3cccc(C(N)=O)c3)c21 (stereo not drawn) [Ex. 36] | 0.4 |
| COCCn1c(-c2ccc(-n3c(C)nn(C)c3=O)cc2)cc2cc(C(F)(F)F)cc(C(=O)Nc3ccc(F)cc3)c21 [Ex. 53] | 3.97 |
| COCCn1c(-c2ccc(-n3c(C)nn(C)c3=O)cc2)cc2cc(C(F)(F)F)cc(C(=O)Nc3ccncc3)c21 [Ex. 54] | 3.39 |
| Cc1nn(C)c(=O)n1-c1ccc(-c2cc3cc(C(F)(F)F)cc(C(=O)Nc4ccc(F)c(C(N)=O)c4)c3n2C)cc1 [Ex. 55] | 2.57 |
| CCn1c(-c2ccc(-n3c(C)nn(C)c3=O)cc2)cc2cccc(C(=O)Nc3cccc(C(N)=O)c3F)c21 [Ex. 58] | 0.55 |
| CCn1c(-c2ccc(-n3c(C)nn(C)c3=O)cc2)cc2cc(F)cc(C(=O)Nc3cccc(C(N)=O)c3F)c21 [Ex. 60] | 0.47 |
| COCCn1c(-c2ccc(-n3c(C)nn(C)c3=O)cc2)cc2cc(C(F)(F)F)cc(C(=O)Nc3cccc(S(N)(=O)=O)c3)c21 [Ex. 63] | 2.53 |
| CCn1c(-c2ccc(-n3cnn(C)c3=O)cn2)cc2cc(C(F)(F)F)cc(C(=O)Nc3ccc(F)c(C(N)=O)c3)c21 [Ex. 64] | 2.62 |
| CCn1c(-c2ccc(N3CCCCC3=O)cc2)cc2cc(C(F)(F)F)cc(C(=O)Nc3ccc(F)c(C(N)=O)c3)c21 [Ex. 71] | 1.18 |
| COCCn1c(-c2ccc(-n3c(C)nn(C)c3=O)cc2)cc2cc(C(F)(F)F)cc(C(=O)Nc3nncs3)c21 [Ex. 79] | 1.9 |
| COCCn1c(-c2ccc(-n3c(C)nn(C)c3=O)cc2)cc2cc(C(F)(F)F)cc(C(=O)Nc3cc[nH]n3)c21 [Ex. 81] | 2.27 |
| CCn1c(-c2ccc(-n3c(C)nn(C)c3=O)cc2)cc2ccnc(C(=O)Nc3cccc(C(N)=O)c3)c21 [Ex. 82] | 1.14 |
| COCCn1c(-c2ccc(-n3c(C)nn(C)c3=O)cc2)cc2cc(C(F)(F)F)cc(C(=O)Nc3cncs3)c21 [Ex. 86] | 1.78 |
| COCCn1c(-c2ccc(-n3c(C)nn(C)c3=O)cc2)cc2cc(C(F)(F)F)cc(C(=O)Nc3cccnn3)c21 [Ex. 87] | 1 |
| Cc1nn(C)c(=O)n1-c1ccc(-c2cc3ccnc(C(=O)Nc4cccc(C(N)=O)c4F)c3n2CC2CC2)cc1 [Ex. 89] | 0.94 |
| CCn1c(-c2ccc(-n3c(C)nn(C)c3=O)cc2)cc2cc(C(F)(F)F)nc(C(=O)Nc3cccc(C(N)=O)c3)c21 [Ex. 96] | 1.89 |
| CCn1c(-c2ccc(-n3c(C)nn(C)c3=O)cc2)cc2cc(C(F)(F)F)cc(C(=O)Nc3ccc4c(c3)NC(=O)C4)c21 [Ex. 101] | 4.06 |
| CCn1c(-c2ccc(-n3c(C)nn(C)c3=O)cc2)cc2cc(C(F)(F)F)cc(C(=O)Nc3ccc(CC(N)=O)cc3)c21 [Ex. 103] | 2.66 |
| CCn1c(-c2ccc(-n3c(C)nn(C)c3=O)cc2)cc2cc(C(F)(F)F)cc(C(=O)Nc3ccc(CC(=O)NC)cc3)c21 [Ex. 104] | 0.73 |
| CCn1c(-c2ccc(-n3c(C)nn(C)c3=O)cc2)cc2cc(C(F)(F)F)cc(C(=O)Nc3cc[nH]n3)c21 [Ex. 105] | 0.78 |
| COCCn1c(-c2ccc(-n3c(C)nn(C)c3=O)cc2)cc2ccnc(C(=O)Nc3cccc(C(N)=O)c3)c21 [Ex. 106] | 1.97 |
| CCn1c(-c2ccc(-n3c(C)nn(C)c3=O)cc2)cc2cc(C(F)(F)F)cc(C(=O)Nc3ccc(CNC(C)=O)cc3)c21 [Ex. 116] | 2.07 |
